What was measured:
EV-A71 [1] = assay: Immunofluorescence-based preliminary screen of EV-A71-infected RD cells; format: cell-based, human enterovirus A71 (EV-A71) strain 41; conditions: EV-A71-infected RD cells (MOI = 1)
From the text: The screening assay was built using an immunofluorescence approach that was previously established and validated, with DAPI-stained nuclei accounting for total cell count and FITC-stained EV-A71 accounting for infected cell count upon EV-A71 infection and compound treatment. Both cell counts would then be used to calculate percentage infection and percentage inhibition to identify for hits. Before the screening platform can be employed to screen for potential antivirals, its robustness has to be appraised. In this study, Z-factor was calculated to assess the robustness of the screening platform. Firstly, seeded RD cells were either infected with EV-A71 (Multiplicity of Infection of 1) or mock-infected with media. The cells were then fixed, stained and imaged 12 h post-infection (hpi). The IFA images were analyzed with the Cell Profiler software to determine the infection rate of each well. Between the virus-infected and mock-infected wells, a clear distinction in infection rates could be observed (Figure 1a). […] In this case, the Z-factor, measured at 0.818, was indicative of a highly robust screening platform for high-throughput screening. The constructed screening platform was then employed to screen the compound library made up of 344 chemically synthesized novel compounds analogous to andrographolide. The compounds were screened at 10 µM with IFA images taken and analyzed to identify for hits. Treatment with 0.1% DMSO was used as vehicle control.
Seeded 96-well plates (Corning Inc., Corning, NY, USA), with 2 × 10^4 RD cells per well, were incubated overnight at 37 °C with 5% CO2. The seeded cells were then infected with EV-A71 (50 µL per well, MOI = 1) for 1 h at 37 °C with 5% CO2. The EV-A71-infected cells were then treated with the compound library at a final concentration of 10 µM for 12 h at 37 °C with 5% CO2. Treatment with 0.1% DMSO was used as vehicle control. Following treatment, cells were fixed with 100 µL of methanol (Sinopharm Chemical, Shanghai, China) for 15 min at −20°C and rinsed with 100 µL of 1x PBS for three times before performing indirect immunofluorescence assay (IFA). Anti-EV-A71 VP2 1° antibodies, MAB979 (Merck Millipore, Burlington, VT, USA), diluted 500-fold in PBS, was incubated with the fixed cells for 1 h at 37 °C. Cells were then rinsed thrice with PBS and incubated with anti-mouse FITC 2° antibodies (Merck Millipore), diluted 200-fold in PBS, for 1 h at 37 °C. After which, the cells were rinsed thrice with PBS before staining with DAPI (Sigma-Aldrich) at room temperature for 15 min. Cells were then rinsed thrice and preserved in 100 µL of PBS before imaging with the Operetta High-Content Imaging System and the Harmony High-Content Imaging and Analysis Software (Perkin Elmer, Waltham, MA, USA). Images of stained cells were captured with the DAPI and FITC fluorescence filters, from a pre-determined central position of each well and processed with the Cell Profiler software. […] The percentage infection (PI) for each well was calculated using the formula: Infected cell count/Total cell count × 100%. The percentage inhibition for each well was calculated using the formula PI0− PI/PI0 × 100% where PI0 refers to the percentage infection of wells treated with the vehicle control while PI refers to the percentage infection of wells treated with the compounds.

RD cells = assay: Cell viability assay (alamarBlue); format: cell-based, human; conditions: 10 µM, 12 h
Procedure: (§1) Firstly, we performed cell viability assay to evaluate the cytotoxicity profile of the 19 hits. Cells seeded overnight were treated with the hit compounds at 10 µM. […] Anti-EV-A71 activity of AGP-253 had been illustrated and discussed previously. We were particularly interested in ZAF-46 and ZAF-47 as they belonged to the same series bearing novel 14-quinolinoxy and 17-hydro-8,9-olefin modifications (Figure 2b) that could potentially open up new targets for EV-A71 therapeutics. Additional cell viability assays were performed for ZAF-46 and ZAF-47 at different concentrations to identify the low cytotoxic concentrations for downstream post-treatment assays. For post-treatment assays, cells seeded overnight were infected with EV-A71 and subsequently treated with ZAF-46 and ZAF-47 at different concentrations. […] Treatment with ZAF-46 led to 1.4 log reduction at 10 µM and 2.4 log reduction at 20 µM (Figure 2c) while treatment with ZAF-47 led to 0.8 log reduction at 5 µM, 1.1 log reduction at 10 µM and 2.1 log reduction at 20 µM (Figure 2d). CC50 and IC50 for both compounds were determined and used to derive their SI (Table 2). ZAF-47 was selected for further downstream analysis due to its higher SI value which indicate higher pharmacological value for clinical use.
(§2) To determine the cytotoxicity profiles of the hits, cell viability assay was performed. Seeded 96-well plates, with 2 × 10^4 RD cells per well, were incubated overnight at 37 °C with 5% CO2. Different concentrations of drug hits, diluted by reduced serum DMEM, were used to treat the seeded cells for 12 h at 37 °C with 5% CO2. Reduced serum DMEM, was employed as the negative control and 0.1% DMSO as the vehicle control for this step. Subsequently, the supernatant was replaced with alamarBlue^TM Cell Viability Reagent (Thermo Fisher Scientific, Waltham, MA, USA) (100 µL), diluted 10-fold in reduced serum DMEM, and incubated for 3 h at 37 °C with 5% CO2. Fluorescence intensity in each well was measured at 570 nm excitation wavelength and 600 nm emission wavelength in each well by the Infinite^TM 200 series microplate reader (Tecan, Männedorf, Switzerland) and normaliszd with the negative control to determine the relative cell viability.

[2] = test system: replication-competent EV-A71 RNA replicon; assay: Nano-luciferase reporter assay, replication-competent replicon; format: cell-based, human enterovirus A71 (EV-A71); conditions: RD cells, 12 h; ZAF-47 different concentrations, GuHCl 1 mM
Procedure: To identify specifically which of these two intrinsically linked processes that ZAF-47 inhibits, we transfected RD cells with EV-A71 RNA replicons that were either replication-competent or replication-defective and subsequently treated them with different concentrations of ZAF-47 for 12 h before detecting for luminescence. Both forms of replicons were previously established and validated. The replication-competent replicon is capable of self-replicating as it contains an intact 3D region that encodes for 3D polymerase (3D^pol) responsible for RNA replication (Figure 4c). […] In contrast, the replication-defective replicon contains a 3D region with 159 nucleotide deletion which would produce a non-functional 3D protein and impair RNA replication (Figure 4c). As such, cells containing the replication-defective replicon express luciferase upon IRES translation of the original replicons only. The transfected cells were also treated with negative control, DMSO and positive controls, guanidine hydrochloride (GuHCl) and cycloheximide (CHX), a RNA replication-specific inhibitor [50] and a general translation inhibitor [51] respectively.
Seeded 96-well plates, with 2 × 10^4 RD cells per well, were incubated overnight at 37 °C with 5% CO2. […]

EV-A71 [3] = assay: Post-treatment assay with viral plaque assay; format: cell-based, human enterovirus A71 (EV-A71) strain 41; conditions: for reduction in viral titre: post-treatment, 12 hpi
Procedure: as §1
To determine the inhibitory profiles of the hits, post treatment assay was performed. Seeded 24-well plates, with 1.5 × 10^5 RD cells per well, were incubated overnight at 37 °C with 5% CO2. The seeded cells were infected with EV-A71 (100 µL per well, MOI = 1) for 1 h at 37 °C with 5% CO2 and then rinsed with 1 mL of PBS twice. Different concentrations of the hits were used to treat the infected cells for 12 h at 37 °C with 5% CO2. At 12 hpi, the plates were frozen and thawed for 2 cycles (−80°C; 37 °C) before collection of supernatants to measure the viral titres via viral plaque assay.
Measurement of the viral titres from collected supernatants was derived from viral plaque assays. To do this, 24-well plates, seeded with 2.4 × 10^5 RD cells per well, were used in plaque assays for EV-A71, EV-D68, Echo7, CV-A6, CV-A16 and CV-A24 while 24-well plates, seeded with 1.2 × 10^5 Vero cells per well, were used in plaque assays for CV-B5. Seeded cells were incubated overnight at 37 °C with 5% CO2. Viral supernatants were diluted from 10^−1 to 10^−7 in reduced serum DMEM before infecting the cells with a volume of 100 µL for 1 h at 37 °C with 5% CO2 (33 °C instead for EV-D68). Cells were rinsed twice with PBS before overlaying with 1 mL of reduced serum DMEM containing 0.5% agarose (Vivantis, Shah Alam, Malaysia). Cells infected with Echo7 supernatants were incubated for 2 days, cells infected with CV-A24 and CV-B5 supernatants were incubated for 3 days and cells infected with EV-A71, CV-A6, CV-A16 and EV-D68 supernatants were incubated for 4 days for the formation of plaques. Subsequently, the cells were fixed and stained overnight with 4% paraformaldehyde and 1% crystal violet (Sigma-Aldrich). Subsequent formation of viral plaques was counted manually to quantify the viral titre in PFU/mL

[4] = Cell viability assay (alamarBlue); format: cell-based, human; conditions: human, RD cells
Procedure: as §1, §2

[5] = set-up: method as in PMID 34816382; conditions: cited from earlier work
[6] = set-up: method as in PMID 34816382; conditions: cited from earlier work; remark: listed apart in the source

SMILES: CC1(CO)C(O)CCC2(C)C(CC=C3C(=O)OCC3Oc3ccc([N+](=O)[O-])cc3Cl)C3(CCC12)CO3 (stereo not drawn) [AGP-253, 14S-(2′-Chloro-4′-Nitrophenoxy)-8R/S, 17-Epoxy Andrographolide]
- Inhibition Rate (%) (EV-A71 [1]; 10 µM, 12 h): 98.91%
- cytotoxicity (RD cells): low cytotoxicity

SMILES: Cl.N=C(N)N [GuHCl, guanidine hydrochloride, reference compound]
- luminescence, replication-competent replicon [2]: significant decrease in luminescence

SMILES: CC(=O)OC[C@]1(C)[C@H](O)CC[C@@]2(C)C(C/C=C3/C(=O)OC[C@@H]3Oc3cccc4cccnc34)=C(C)CC[C@H]12 [ZAF-46, (14β)-(8′-Quinolinoxy)-9-dehydro-17-hydro-19-acetoxy-andrographolide]
- Nuclei Count (EV-A71 [1]; 10 µM, 12 h, 0.1% DMSO wells 998): 1037
- inhibition at 10 µM (EV-A71 [1]; Enterovirus A, EVA71, 12 h, read-out: Inhibition Rate (%)): 96%
- reduction in viral titre (EV-A71 [3]; 10 µM): 1.4 log
- reduction in viral titre (EV-A71 [3]; 20 µM): 2.4 log
- IC50 (EV-A71 [3]; Enterovirus A, EVA71, EV-A71-infected RD cells, MOI = 1, 12 h treatment, viral plaque assay): 4.44 µM
- Selectivity Index (SI) (EV-A71 [3]; SI = CC50/IC50): 6.73
- CC50 at 12 h [4]: 29.9 µM
- cytotoxicity (RD cells): low cytotoxicity

SMILES: C=C1CC[C@@H]2[C@](C)(CO)[C@H](O)CC[C@@]2(C)[C@@H]1C/C=C1/C(=O)OC[C@H]1O [andrographolide]
- bioavailability [5]: poor bioavailability
- water solubility [6]: low water solubility
